From ChEMBL document CHEMBL1122789, “Synthesis and biological activity of structural analogues of the anticancer benzophenanthridine alkaloid nitidine chloride” (1984)
The source made the active and inactive calls. The rule behind the calls is not given here.

Legend:
[1] = test system: KB; assay: Evaluated in vitro for cytotoxicity against KB cell culture system; type: functional; settings: Homo sapiens, read-out: ED50 (the source's name)
[2] = test system: P388; assay: Evaluated for anticancer activity against P388 lymphocytic leukemia system at a dose of 200 mg/Kg; Inactive; type: functional; settings: Mus musculus
[3] = test system: P388; assay: Evaluated for percentage test/control (%T/C) in survival tumor system against P388 lymphocytic leukemia; type: functional, Mus musculus
[4] = test system: B16; assay: Evaluated for percentage test/control (%T/C) in survival tumor system against B16 melanocarcinoma at dose 20 mg/Kg; type: functional, Mus musculus
[5] = test system: L1210; assay: Evaluated for percentage test/control (%T/C) in survival tumor system against L1210 lymphoid leukemia; type: functional, Mus musculus

| SMILES | EC50 [1] [ng/mL] | Anticancer activity [2] | T/C [3] [%] | T/C [4] [%] | T/C [5] [%] |
| --- | --- | --- | --- | --- | --- |
| COc1cc2cc(-c3ccc4c(c3)OCO4)[n+](C)cc2cc1OC.[Cl-] | 5 | inactive | – | – | – |
| COc1cc2c(ccc3c4cc(OC)c(OC)cc4c[n+](C)c23)cc1O.[Cl-] [FAGARONINE] | – | – | 265 | – | – |
| COc1cc2c[n+](C)c3c4cc5c(cc4ccc3c2cc1OC)OCO5.[Cl-] [NITIDINE CHLORIDE] | – | – | 209 | 141 | 136 |
